Read-outs that look alike come from different tables or passages of the source.
Assays:
[1] = tested on: human chondrogenic progenitor cell (CPCs); test: Collagen type II assay (chondrogenic differentiation); type: cell-based; settings: 432 h, hCPCs, 18 days; for Emax: read-out: (B) % Efficacy; for EC50: read-out: (B) EC50
Protocol: To initiate chondrogenesis in primary CPCs, 8000 cells were plated/well in a Costar 96 well plate in MSCGM. After 24 hours the MSCGM was removed and replaced with DMEM containing 1% FBS. The test compound was then added to each well at the indicated dose. The cultures were grown at 37° C. for 18 days. A media supplement of an additional 50 μl of DMEM containing 1% FBS was given 10 days after chondrogenic induction.
To detect the presence of Collagen type II, hCPCs were fixed with 10% formalin for 20 minutes, permeablized with PBS containing 0.1% triton X-100, 0.2 mg/ml of Collagenase 2 for 10 minutes, blocked with PBS containing 5% BSA for 1 hr at room temperature, followed by incubation with primary antibody (anti-type II collagen antibody) in PBS containing 1% BSA overnight at 4° C. Cells were washed 3 times with PBS and incubated with fluorophore-conjugated secondary antibody and Hoechst dye for 1 hour at room temperature, followed by washing with PBS for 3 times.
The total intensity of staining was imaged by fluoresecent microscopy and/or quantified by high content imagining with the ImageXpress Micro (Molecular Devices, Sunnyvale, CA). Data analyses were performed with the customized multiwavelength cell-scoring application.

[2] = tested on: normal human articular chondrocytes (NHACs); test: alkaline phosphatase assay in NHAC; type: cell-based; settings: 10 days; for Emax: read-out: (C) % Efficacy; for IC50: read-out: (C) IC50
Protocol: To initiate differentiation in NHACs, 16,000 cells were plated/well in Costar 96 well plate in CGM media (Lonza). After 24 hours the MSCGM was removed and replaced with DMEM containing 1% FBS. The test compound was then added to each well at the indicated dose. The cultures were grown at 37° C. for 10 days.
To detect the presence of hypertrophic cells, NHACs were fixed with 10% formalin and Hoeschst dye for 20 minutes, rinsed in PBS, then stained with Fast Blue RR Salt with Naphthol AS-MX Phosphate Alkaline Solution.
The total intensity of staining was imaged by fluoresecent microscopy, using the 651 wavelength, and/or quantified by high content imagining with the ImageXpress Micro (Molecular Devices, Sunnyvale, CA). Data analyses were performed with the customized multiwavelength cell-scoring application.

C3H10T1/2 cell line = test: alkaline phosphatase assay in C3H10T1/2; type: cell-based; settings: alkaline phosphatase assay in C3H10T1/2, 6 days; for Emax: read-out: (D) % Efficacy; for IC50: read-out: (D) IC50
How it was run: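 Mouse C3H10T1/2 Clone 8 cells in DMEM/10% FBS dosed 24 h after plating, then cultured 6 days at 37° C. Fixed cells stained for alkaline phosphatase (Fast Blue RR/Naphthol AS-MX), imaged at 561 nm; readout is ALP-positive cells per well by high-content imaging.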

NHACs = test: calcium flux assay; type: cell-based, human; settings: for Emax: read-out: (A) % Efficacy
How it was run: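 Normal human articular chondrocytes plated at 2000 cells/well and loaded 24 h later with Calcium 5 dye in HBSS/HEPES with 5 mM probenecid for 1 h at room temperature. Test compound added at indicated dose; fluorescence (ex 470–495/em 515–575 nm) recorded on FLIPR before and after addition.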

[3] = intrinsic clearance in rat liver microsomes; type: in vitro ADME
[4] = intrinsic clearance in human liver microsomes; type: in vitro ADME
CYP3A4 = CYP3A4 (Homo sapiens, UniProt P08684); test: CYP3A4 inhibition; type: in vitro ADME; settings: read-out: CYP3A4 inh.
CYP3A4, sequence (P08684 whole entry): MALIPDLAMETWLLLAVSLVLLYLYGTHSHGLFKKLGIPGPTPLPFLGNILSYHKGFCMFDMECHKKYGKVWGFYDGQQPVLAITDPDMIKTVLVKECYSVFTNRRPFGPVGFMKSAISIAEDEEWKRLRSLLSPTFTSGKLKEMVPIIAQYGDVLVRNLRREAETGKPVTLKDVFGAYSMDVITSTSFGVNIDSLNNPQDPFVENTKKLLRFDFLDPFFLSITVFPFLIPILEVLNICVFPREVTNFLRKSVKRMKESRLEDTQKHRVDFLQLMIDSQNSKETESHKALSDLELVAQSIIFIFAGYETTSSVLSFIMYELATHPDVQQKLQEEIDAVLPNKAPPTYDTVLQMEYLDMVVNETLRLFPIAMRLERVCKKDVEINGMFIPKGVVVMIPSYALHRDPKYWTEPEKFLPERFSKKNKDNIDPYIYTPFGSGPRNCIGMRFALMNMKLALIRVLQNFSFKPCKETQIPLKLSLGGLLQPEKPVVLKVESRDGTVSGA

[5] = Homo sapiens, Chondrocyte, 240 h
[6] = Mus musculus, C3H 10T1/2, 144 h

SMILES	Emax [1]	EC50 [1]	Emax [2, 5]	IC50 [2, 5]	Emax (C3H10T1/2 cell line; [6])	IC50 (C3H10T1/2 cell line; [6])	EC50 (NHACs; Homo sapiens)	Emax (NHACs; Homo sapiens)	(C) % Efficacy [2]	IC50 [2]	(D) % Efficacy (C3H10T1/2 cell line)	IC50 (C3H10T1/2 cell line)	(A) % Efficacy (NHACs)	EC50 (NHACs)	microsomal CLint [3]	microsomal CLint [4]	IC50 (CYP3A4)
Cc1cc([C@H]2[C@H]3O[C@H](C[C@@H]3O)[C@@H]2C(=O)Nc2cnc(Cl)c(Cl)c2)ccn1 (single isomer, unassigned) [Example 83]	150%	1.5 µM	106%	12 µM	34%	> 20 µM	> 50 µM	38%									
Cc1cc([C@H]2[C@H]3O[C@H]([C@@H]4C[C@@H]43)[C@H]2C(=O)Nc2ccc(Cl)c(Cl)c2)ccn1 (single isomer, unassigned) [Example 23a]	29%	0.78 µM	100%	30 µM	28%	> 20 µM	6.1 µM	99%									
O=C(Nc1ccc(Cl)c(Cl)c1)[C@@H]1[C@@H]2O[C@@H]([C@H]3C[C@H]32)[C@@H]1c1cncnc1 [Example 27]									71%	34 µM	48%	> 20 µM	120%	13 µM			
Cc1cc([C@H]2[C@H]3O[C@H](C[C@@H]3O)[C@@H]2C(=O)Nc2ccc(Cl)c(Cl)c2)ccn1 (single isomer, unassigned) [Example 77a]	120%	0.69 µM	114%	3.5 µM	45%	> 20 µM	26 µM	182%									
Cc1cc([C@H]2[C@H]3O[C@H](C[C@@H]3O)[C@H]2C(=O)Nc2cccc(C(F)(F)F)c2)ccn1 [Example 8, (1R,2S,3S,4R,5S)-5-hydroxy-3-(2-methylpyridin-4-yl)-N-[3-(trifluromethyl)phenyl]-7-oxabicyclo[2.2.1]heptane-2-carboxamide]			62%	> 31 µM	16%	> 20 µM	> 50 µM	50%									
Cc1cc([C@H]2[C@H]3O[C@H](C[C@@H]3O)[C@H]2C(=O)Nc2ccc(Cl)c(Cl)c2)ccn1 (single isomer, unassigned) [Example 53a]	44%	13 µM	83%	31 µM	0%	> 20 µM	> 50 µM	12%									
Cc1cc([C@@H]2[C@@H]3O[C@@H]([C@@H](O)[C@H]3O)[C@H]2C(=O)Nc2ccc(Cl)c(Cl)c2)ccn1 (single isomer, unassigned) [Example 157]	59%	2.1 µM	84%	32 µM	15%	> 20 µM	29 µM	57%									
O=C(Nc1ccc(Cl)c(Cl)c1)[C@H]1[C@@H](c2ccncc2)[C@H]2O[C@@H]1C[C@@H]2O															7 µL/min/mg	7 µL/min/mg	> 25 µM
Cc1cc([C@H]2[C@H]3O[C@H]([C@H](O)[C@@H]3O)[C@@H]2C(=O)Nc2ccc(Cl)c(Cl)c2)ccn1 (single isomer, unassigned) [Example 156]	99%	0.95 µM	103%	15 µM	42%	> 20 µM	18 µM	28%									
O=C(Nc1cccc(C(F)(F)F)c1)[C@H]1[C@@H](c2ccncc2)[C@H]2O[C@@H]1C[C@@H]2O (single isomer, unassigned) [Example 11a]	91%	2.9 µM	65%	48 µM	6%	> 20 µM	0.27 µM	98%									
Cc1cc([C@H]2[C@H]3O[C@H](C[C@H]3N3CCOCC3)[C@@H]2C(=O)Nc2ccc(Cl)c(Cl)c2)ccn1 [Example 177, (1R,2R,3S,4R,5R)—N-(3,4-dichlorophenyl)-3-(2-methylpyridin-4-yl)-5-morpholino-7-oxabicyclo[2.2.1]heptane-2-carboxamide]	34%	1.5 µM	33%	> 50 µM	103%	1.5 µM	22 µM	211%									
O=C(Nc1cnc(Cl)c(Cl)c1)[C@@H]1[C@@H](c2ccnc(F)c2)[C@H]2O[C@@H]1C[C@@H]2O (single isomer, unassigned) [Example 90a]	65%	2.3 µM	98%	> 50 µM	48%	> 20 µM	> 50 µM	101%									
O=C(Nc1ccc(Cl)c(Cl)c1)[C@H]1[C@@H](c2ccnc(F)c2)[C@H]2O[C@@H]1C[C@@H]2O (single isomer, unassigned) [Example 52a]	80%	0.49 µM	71%	17 µM	36%	> 20 µM	> 50 µM	96%									
O=C(Nc1ccc(Cl)c(Cl)c1)[C@@H]1[C@@H](c2ccnc(F)c2)[C@H]2O[C@@H]1C[C@@H]2O (single isomer, unassigned) [Example 142a]	83%	1.2 µM	93%	33 µM	81%	6.6 µM	22 µM	68%									
Nc1cc([C@@H]2[C@@H](C(=O)Nc3ccc(Cl)c(Cl)c3)[C@H]3CC[C@@H]2O3)ccn1 [reference compound]															243 µL/min/mg	38 µL/min/mg	5 µM
O=C(Nc1ccc(Cl)c(Cl)c1)[C@H]1[C@@H](c2ccncc2)[C@@H]2CC[C@H]1O2 [reference compound]															466 µL/min/mg	202 µL/min/mg	6 µM
O=C(Nc1ccc(Cl)c(Cl)c1)[C@H]1[C@@H](c2ccncc2)[C@H]2O[C@@H]1C[C@@H]2O (single isomer, unassigned) [Example 47a]	82%	2.1 µM	88%	33 µM	23%	> 20 µM	> 50 µM	68%									
Nc1cc([C@H]2[C@H]3O[C@H](C[C@@H]3O)[C@@H]2C(=O)Nc2ccc(Cl)c(Cl)c2)ccn1 [drawing 199]															11 µL/min/mg	7 µL/min/mg	20 µM
